Data as given in paper PMC4392609, “Interactions of antiretroviral drugs with the SLC22A1 (OCT1) drug transporter” (Frontiers in Pharmacology, 2015).
“And” between values parts separate entries of the source, which are not always exact repeats. Equal values may be shown once. Read-outs that look alike come from different tables or passages of the source. One block for each molecule: values may come before it.

How the values were obtained:
SLC22A1 [1] = target: T1, SLC22A1 (Homo sapiens, UniProt O15245); set-up: expressed in transfected cells; method as in Zhang et al., 2000; details: ref Zhang et al., 2000; cited from earlier work
T1 sequence (O15245 1-554): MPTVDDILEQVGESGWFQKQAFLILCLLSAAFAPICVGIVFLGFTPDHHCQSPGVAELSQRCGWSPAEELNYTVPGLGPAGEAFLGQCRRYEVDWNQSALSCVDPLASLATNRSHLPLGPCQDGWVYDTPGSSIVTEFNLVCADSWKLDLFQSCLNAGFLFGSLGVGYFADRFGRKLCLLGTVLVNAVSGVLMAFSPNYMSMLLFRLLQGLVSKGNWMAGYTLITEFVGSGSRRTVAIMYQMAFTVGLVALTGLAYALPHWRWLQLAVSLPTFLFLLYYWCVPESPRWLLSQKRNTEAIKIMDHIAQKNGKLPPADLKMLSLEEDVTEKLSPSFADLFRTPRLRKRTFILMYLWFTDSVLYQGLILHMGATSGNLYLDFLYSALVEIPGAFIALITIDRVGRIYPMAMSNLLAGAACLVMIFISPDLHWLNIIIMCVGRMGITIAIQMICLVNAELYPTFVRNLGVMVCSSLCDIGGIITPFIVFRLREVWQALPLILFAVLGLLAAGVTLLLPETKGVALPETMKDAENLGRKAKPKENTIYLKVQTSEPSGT

SLC22A1 [2] = target: T1, SLC22A1; set-up: expressed in transfected cells; method as in Jung et al., 2008; details: 1-methyl-4-phenylpyridinium as substrate, HEK-293 cells, 1 min incubation; efavirenz assessed only at 5 μM; ref Jung et al., 2008; cited from earlier work
SLC22A1 [3] = target: T1, SLC22A1; details: 30 min
Source text: Using intracellular radioactivity readings, the amount of drug in mock transfected cells was compared to SLC22A1-overexpressing KCL22 cells (% ± SD).

SLC22A1 [4] = target: T1, SLC22A1; assay: Tetraethylammonium accumulation in SLC22A1-overexpressing KCL22 cells co-incubated with 50 μM test drug; details: for Reduction in cellular accumulation (of tetraethylammonium): 50 μM drug, SLC22A1-overexpressing KCL22 cells
SLC22A1 [5] = target: T1, SLC22A1; assay: SLC22A1 IC50 determination (inhibition of tetraethylammonium accumulation over a concentration range); assay type: cell-based; set-up: expressed in transfected cells; details: for TEA accumulation when 100 μM inhibitor used (%compared to inhibitor-free control): tetraethylammonium 5.5 μM, 30 min
[6] = ref Villani et al., 1999; cited from earlier work
[7] = SLC22A1-overexpressing KCL22 cells, 100 μM inhibitor

Compound: CC(C)(C)NC(=O)[C@@H]1CN(Cc2cccnc2)CCN1C[C@@H](O)C[C@@H](Cc1ccccc1)C(=O)N[C@H]1c2ccccc2C[C@H]1O [indinavir]
- Effect on tetraethylammonium accumulation in SLC22A1-overexpressing Hela cells (SLC22A1 [1]): able to reduce tetraethylammonium accumulation

Compound: Nc1ccn([C@@H]2CS[C@H](CO)O2)c(=O)n1 [lamivudine]
- SLC22A1 inhibition in vitro (SLC22A1 [2]): significant inhibition

Compound: CC[N+](CC)(CC)CC [tetraethylammonium]
- Amount of substrate in SLC22A1-overexpressing cells subjected to prazosin compared to SLC22A1-overexpressing cells (% less) (SLC22A1 [3]; KCL22 cells, 100 μM prazosin, efavirenz 20 μM, darunavir 20 μM, tetraethylammonium 1 μM): 76%
- Amount of substrate in mock-transfected cells compared to SLC22A1-overexpressing cells (% less) (SLC22A1 [3]; KCL22 cells, efavirenz 20 μM, darunavir 20 μM, tetraethylammonium 1 μM): 92%
- Tetraethylammonium cellular accumulation in mock transfected control KCL22 cells (SLC22A1 [4]; tetraethylammonium 5.5 μM, 30 min, no inhibitor, mean ± SD, n = 3): 0.3 ± 0.04 µM and 0.3 ± 0.004 µM
- Tetraethylammonium cellular accumulation in SLC22A1-overexpressing KCL22 cells (SLC22A1 [4]; tetraethylammonium 5.5 μM, 30 min, no inhibitor, mean ± SD, n = 9): 10.6 ± 0.8 µM

- Reduction in cellular tetraethylammonium accumulation (SLC22A1 [5]; 100 μM inhibitor, SLC22A1-overexpressing KCL22 cells): 84%
- TEA accumulation when 100 μM inhibitor used (%compared to inhibitor-free control) (SLC22A1 [5]; [7]): 16.1%
- IC50 (SLC22A1 [5]; read-out: Absolute IC50): 2.8 µM
- IC50 (SLC22A1 [5]; read-out: Relative IC50): 2.3 µM
Compound: COc1cc2nc(N3CCN(C(=O)c4ccco4)CC3)nc(N)c2cc1OC [prazosin]

Compound: Cc1nnc(C(=O)NC(C)(C)c2nc(C(=O)NCc3ccc(F)cc3)c(O)c(=O)n2C)o1 [raltegravir]
- Tetraethylammonium concentration in cells after 30 min incubation (SLC22A1 [4]): 9.6 ± 1.4 µM

Compound: CC(C)(C)NC(=O)[C@@H]1C[C@@H]2CCCC[C@@H]2CN1C[C@@H](O)[C@H](Cc1ccccc1)NC(=O)[C@H](CC(N)=O)NC(=O)c1ccc2ccccc2n1 [saquinavir]
- Effect on tetraethylammonium accumulation in SLC22A1-overexpressing Hela cells (SLC22A1 [1]): able to reduce tetraethylammonium accumulation

- Reduction in cellular accumulation (of tetraethylammonium) (SLC22A1 [4]): 24.5%
Compound: Cc1ccnc2c1NC(=O)c1cccnc1N2C1CC1 [nevirapine]

Compound: Cc1cn([C@H]2C[C@H](N=[N+]=[N-])[C@@H](CO)O2)c(=O)[nH]c1=O [zidovudine]
- Tetraethylammonium concentration in cells after 30 min incubation (SLC22A1 [4]): 8.5 ± 3.1 µM

- Reduction in cellular accumulation (of tetraethylammonium) (SLC22A1 [4]): 41.2%
Compound: Cc1cc(/C=C/C#N)cc(C)c1Nc1ccnc(Nc2ccc(C#N)cc2)n1 [rilpivirine]

- Accumulation in SLC22A1-expressing cells compared to mock-transfected cells (% higher) (SLC22A1 [3]; human, 20 μM): 17%
- Amount of substrate in mock-transfected cells compared to SLC22A1-overexpressing cells (% less) (SLC22A1 [3]; human, 20 μM): 17%
- TEA accumulation when 100 μM inhibitor used (%compared to inhibitor-free control) (SLC22A1 [5]; [7]): 39.7%
- IC50 (SLC22A1 [5]; read-out: Absolute IC50): 21.8 µM
- IC50 (SLC22A1 [5]; read-out: Relative IC50): 7.4 µM
- Reduction in cellular accumulation (of tetraethylammonium) (SLC22A1 [4]): 50.0%
Compound: O=C1Nc2ccc(Cl)cc2[C@@](C#CC2CC2)(C(F)(F)F)O1 [efavirenz]
- Maximum plasma concentration of efavirenz [6]: 12.7 µM
- SLC22A1 inhibition in vitro (SLC22A1 [2]): did not show SLC22A1 inhibition

Compound: CC(C)c1nc(CN(C)C(=O)N[C@H](C(=O)N[C@@H](Cc2ccccc2)C[C@H](O)[C@H](Cc2ccccc2)NC(=O)OCc2cncs2)C(C)C)cs1 [ritonavir]
- Effect on tetraethylammonium accumulation in SLC22A1-overexpressing Hela cells (SLC22A1 [1]): able to reduce tetraethylammonium accumulation
- SLC22A1 inhibition in vitro (SLC22A1 [2]): inhibited

Compound: COC(=O)N[C@H](C(=O)N[C@@H](Cc1ccccc1)[C@@H](O)CN(Cc1ccc(-c2ccccn2)cc1)NC(=O)[C@@H](NC(=O)OC)C(C)(C)C)C(C)(C)C [atazanavir]
- SLC22A1 inhibition in vitro (SLC22A1 [2]): no SLC22A1-inhibiting capability

Compound: Cc1c(O)cccc1C(=O)N[C@@H](CSc1ccccc1)[C@H](O)CN1C[C@H]2CCCC[C@H]2C[C@H]1C(=O)NC(C)(C)C [nelfinavir]
- Effect on tetraethylammonium accumulation in SLC22A1-overexpressing Hela cells (SLC22A1 [1]): able to reduce tetraethylammonium accumulation
- SLC22A1 inhibition in vitro (SLC22A1 [2]): inhibited

- Reduction in cellular accumulation (of tetraethylammonium) (SLC22A1 [4]): 22.5%
Compound: Cc1cc(C#N)cc(C)c1Oc1nc(Nc2ccc(C#N)cc2)nc(N)c1Br [etravirine]
